Paper PMC4919791, “Effect of curcumin analogs onα-synuclein aggregation and cytotoxicity” (Scientific Reports, 2016)

Biological target: T1, preformed α-Syn fibrils (Homo sapiens, UniProt P37840)
T1 construct: made in house; host or cells: Escherichia coli BL21
Test: Nile red binding assay on preformed α-Syn fibrils
Format: biochemical
Details: fibrils incubated with analog 48 h
Protocol: Stock solution of NR was prepared in DMSO (1 mM). […] Similar experimental protocol was used for NR binding to oligomers. FluoroMax-4 spectrofluorometer (HORIBA JobinYvon) was used with excitation and emission slit widths of 5 nm. The maximum NR fluorescence obtained at ~630 nm was used for plotting bar diagrams.

COc1cc(/C=C/C(=O)CC(=O)/C=C/c2ccc(OCc3ccccc3)c(OC)c2)ccc1OCc1ccccc1 [C6]
Nile red fluorescence of preformed α-Syn fibrils (exposed hydrophobic surface): less NR fluorescence for fibrils as compared to curcumin
